Each structure is given as a SMILES string. The source made the active and inactive calls. The rule behind the calls is not given here.

In this assay the target is T1, Tyrosine-protein kinase receptor TYRO3 (Homo sapiens) (UniProt Q06418).
T1 sequence (whole entry): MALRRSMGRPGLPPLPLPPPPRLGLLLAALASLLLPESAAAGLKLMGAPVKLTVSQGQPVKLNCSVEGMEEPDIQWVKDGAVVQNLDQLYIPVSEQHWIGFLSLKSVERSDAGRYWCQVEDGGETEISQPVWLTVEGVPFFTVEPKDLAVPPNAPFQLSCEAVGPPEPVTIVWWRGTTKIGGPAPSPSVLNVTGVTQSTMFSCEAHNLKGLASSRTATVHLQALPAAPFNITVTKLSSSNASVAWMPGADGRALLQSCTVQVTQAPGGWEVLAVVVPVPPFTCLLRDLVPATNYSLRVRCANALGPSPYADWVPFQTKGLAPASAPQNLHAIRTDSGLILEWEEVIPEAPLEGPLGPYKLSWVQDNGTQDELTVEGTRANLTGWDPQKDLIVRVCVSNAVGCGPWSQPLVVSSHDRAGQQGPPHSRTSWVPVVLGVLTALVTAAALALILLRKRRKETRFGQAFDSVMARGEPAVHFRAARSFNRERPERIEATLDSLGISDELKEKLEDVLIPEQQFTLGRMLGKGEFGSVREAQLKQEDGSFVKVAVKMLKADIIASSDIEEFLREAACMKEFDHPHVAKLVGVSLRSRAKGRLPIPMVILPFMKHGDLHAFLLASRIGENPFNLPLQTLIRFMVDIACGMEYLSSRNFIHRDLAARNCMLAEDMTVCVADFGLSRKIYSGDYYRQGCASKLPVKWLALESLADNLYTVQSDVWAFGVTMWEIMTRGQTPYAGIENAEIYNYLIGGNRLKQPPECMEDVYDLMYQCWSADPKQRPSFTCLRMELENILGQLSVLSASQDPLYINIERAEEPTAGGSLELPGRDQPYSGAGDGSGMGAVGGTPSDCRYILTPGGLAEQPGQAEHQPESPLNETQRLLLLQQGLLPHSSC
Briefly: Inhibition of recombinant human Tyro3 kinase domain using poly (Glu, Ala, Tyr) as substrate up to 50 uM after 1.5 hrs by ELISA. (In an ELISA, binding on a coated surface is turned into a signal by an enzyme label.)
As to `Nc1cc(Oc2ccc(NC(=O)c3cccn(-c4ccc(F)c(F)c4)c3=O)cc2F)ncn1`, the inhibition entry is “inactive”.

For the compound `O=C(Nc1ccc(Oc2cc(On3nnc4ccccc43)ncn2)c(F)c1)c1cccn(-c2ccc(F)cc2F)c1=O`, the inhibition result was “inactive”.

As for `COc1ccc(CNc2cc(Oc3ccc(NC(=O)c4cccn(-c5ccc(F)cc5)c4=O)cc3F)ncn2)cc1`, the inhibition result is “inactive”.

With `O=C(Nc1ccc(Oc2cc(On3nnc4ccccc43)ncn2)c(F)c1)c1cccn(-c2ccc(F)c(F)c2)c1=O`, the inhibition entry is “inactive”.

In the case of `CNc1nccc(Oc2ccc(NC(=O)c3cccn(-c4ccc(F)cc4)c3=O)cc2F)n1`, the inhibition result is “inactive”.

Turning to `COc1ccc(CNc2nccc(Oc3ccc(NC(=O)c4cccn(-c5ccc(F)cc5)c4=O)cc3F)n2)cc1`, the inhibition entry was “inactive”.

Regarding `O=C(Nc1ccc(Oc2cc(On3nnc4ccccc43)ncn2)c(F)c1)c1cccn(-c2ccc(F)cc2)c1=O`, the inhibition result is “inactive”.

With `COc1ccc(-n2cccc(C(=O)Nc3ccc(Oc4cc(On5nnc6ccccc65)ncn4)c(F)c3)c2=O)c(F)c1`, the inhibition entry was “inactive”.

For the compound `CNc1cc(Oc2ccc(NC(=O)c3cccn(-c4ccc(F)cc4)c3=O)cc2F)ncn1`, the inhibition result is “inactive”.

As to `Cc1cc(F)ccc1-n1cccc(C(=O)Nc2ccc(Oc3cc(On4nnc5ccccc54)ncn3)c(F)c2)c1=O`, the inhibition result is “inactive”.

As to `COc1ccc(-n2cccc(C(=O)Nc3ccc(Oc4cc(N)ncn4)c(F)c3)c2=O)c(F)c1`, the inhibition entry is “inactive”.

Take `O=C(Nc1ccc(Oc2cc(Cl)ncn2)c(F)c1)c1cccn(-c2ccc(F)cc2)c1=O`: the inhibition result was “inactive”.

For the origin of these results see ChEMBL document CHEMBL3091325, “New aminopyrimidine derivatives as inhibitors of the TAM family” (Eur J Med Chem, 2013).
